Assay results as given in paper PMC10599528, “GPC-100, a novel CXCR4 antagonist, improves in vivo hematopoietic cell mobilization when combined with propranolol” (PLOS ONE, 2023).
Where two headings read alike, the source gives them in different places. Values belong to the molecule of their own block, whether it stands above or below them.

Tests used:
[1] = test system: U937 cells; experiment: CXCL12-mediated transwell migration of U937 cells; conditions: Homo sapiens, U-937, 24 h, read-out: IC50, blockade of CXCL12-mediated migration
Method: (§1) Cells were allowed to migrate toward CXCL12 in the presence or absence of the antagonists for 4 h (MM.1S) or 24 h (U937) at 37°C. The migration of U937 cells was measured using PrestoBlue Cell Viability Reagent (Invitrogen). For MM.1S cell line, the migrated cells were counted by flow cytometry. The fluorescence intensity (560 nm/590 nm excitation/emission) was detected using a Varioskan LUX Multimode Microplate Reader.
MM.1S (A) or U937 (B) cells were
(§2) suspended in serum-free media containing 0.5% BSA at 5X106 cells/ml and 100 μl of cell
(§3) suspension was added to transwell insert. SDF-1/CXCL12 at the indicated concentrations in 800
(§4) μl of serum-free media containing 0.5% BSA was added to the lower chamber of the transwell.
(§5) The transwell insert with 100 μl cell suspension was put on the lower chamber very carefully
(U937) to allow cell migration.

[2] = test system: CXCR4 and β2AR; experiment: Calcium flux in MDA-MB-231 cells endogenously expressing CXCR4 and β2AR, CXCL12 plus epinephrine; format: cell-based; conditions: 10 μM of each antagonist; 200 nM CXCL12, 10 μM epinephrine
Method: MDA-MB-231 cells endogenously expressing CXCR4 and β2AR, or transduced with adenoviruses encoding CXCR4 for overexpression were used for calcium flux. Cells were cultured for 2 days prior to running the assay and seeded at 8×10^4 cells/well in a 96-well black clear-bottom microplate. The following day, cells were stained with Cal-520 AM (AAT Bioquest) for 2 h at 37°C and treated with antagonists for 30 min followed by agonist stimulation. Intracellular calcium flux was measured using a Flexstation 3 microplate reader (Molecular Devices).

[3] = test system: circulating WBCs; experiment: In vivo WBC mobilization to peripheral blood (CBC analysis); design: species or system C57BL/6J mice
Method: Studies were performed at a facility accredited by the Association for Assessment and Accreditation of Laboratory Animal Care and in strict accordance with the recommendations in the Guide for the Care and Use of Laboratory Animals of the National Institute of Health. […] C57BL/6J mice (female, 6–9 weeks old) were ordered from Jackson Laboratories and allowed to habituate for one week before handling. They were housed 5 per cage and had free access to food and water.
Mice were monitored daily and weighed prior to drug administration. Based on the body weight data, mice were randomized into groups using the randomization tool in Benchling Studies randomization software. PB was collected by submental bleeding (non-terminal) or cardiac puncture (terminal). For terminal blood collections, mice were placed in an induction chamber with 2.5–4% isoflurane and then a maintenance dose of 2–3% through a nose cone. A toe pinch on all four quadrants was applied to confirm the surgical plane of anesthesia. Upon completion of terminal blood collection from cardiac puncture, the mice were euthanized via cervical dislocation while still under the effects of isoflurane. Approximately 25 μL blood was used for CBC analysis and the remaining blood was processed for flow cytometry or colony forming unit (CFU) assay. For non-terminal submental bleeding, a 4mm lancet was used to puncture the linguofacialis vein under the chin. […] For the time-course of mobilization, each mouse was bled twice. Submental bleeding was performed at 0.5 h, 1 h or 2 h after the respective dosing and cardiac puncture was performed at 3 h, 4 h and 6 h post-dose.
Blood samples were processed for complete blood count (CBC) analysis using the Abaxis VetScan HM5 hematology analyzer (Abaxis), which reports 18-parameters including WBC, lymphocytes, neutrophils, monocytes, platelets, hemoglobin, RBC and morphology.

[4] = test system: circulating WBCs; conditions: mice, 5 mg/kg SC; cited from earlier work
[5] = test system: MM.1S cells; experiment: CXCL12-induced transwell migration of MM.1S cells; conditions: Homo sapiens, MM1.S, 4 h, read-out: IC50, blockade of CXCL12-induced migration
Method: as §1
MM.1S (A) or U937 (B) cells were
as §2, §3, §4, §5
(U937) to allow cell migration.

[6] = test system: CD34+ cells; conditions: at least; cited from earlier work

IC50 [1]: 42 nM
IC50 [5]: 80 nM
Molecule: c1cc(CN2CCCNCCNCCCNCC2)ccc1CN1CCCNCCNCCCNCC1 [AMD3100]
inhibition of synergistic calcium flux induced by CXCL12 and epinephrine [2]: partially inhibited
increase in circulating WBCs compared to the vehicle ([3]; 1 hour post-drug, GPC-100 30 mg/kg IV, AMD3100 5 mg/kg SC, single injection): 3 fold
time of peak mobilization ([3]; time-course 30 min to 6 hours post-drug, GPC-100 30 mg/kg IV, AMD3100 5 mg/kg SC): 2 h
time of peak mobilization [4]: 1 h

Molecule: CC(C)NCC(O)COc1cccc2ccccc12 (stereo not drawn) [propranolol]
inhibition of synergistic calcium flux induced by CXCL12 and epinephrine [2]: partially inhibited

B1: G-CSF: Granulocyte-colony stimulating factor; recombinant murine G-CSF in the mouse studies (protein, UniProt P09920 31-208, looked up)
Granulocyte …: VPLVTVSALPPSLPLPRSFLLKSLEQVRKIQASGSVLLEQLCATYKLCHPEELVLLGHSLGIPKASLSGCSSQALQQTQCLSQLHSGLCLYQGLLQALSGISPALAPTLDLLQLDVANFATTIWQQMENLGVAPTVQPTQSAMPAFTSAFQRRAGGVLAISYLQGFLETARLALHHLA
MM patients in whom an optimal number of HSC is not mobilized [6]: 40–50%
increase in WBC mobilization ([3]; G-CSF 0.1 mg/kg SC BID days 2-6, propranolol 20 mg/kg IP 7 days, GPC-100 30 mg/kg IV or AMD3100 5 mg/kg SC day 7): 4.5 fold
